Measured values as given in PubChem BioAssay AID179 (DTP/NCI, 2004).
Calls of active or inactive are those of the source.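 Rule for the calls: active = compounds giving half or more protection of infected cells from virus-caused growth loss, again on retest; inactive = the rest.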

System: CEM cells HIV-1 protection, formazan growth assay
Experiment: NCI AIDS Antiviral Assay
Settings: for IC50: measured here: growth of uninfected CEM cells
Procedure, shortened: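 Protection of CEM cells against HIV-1 was scored from cell growth (soluble formazan) across five concentrations, with parallel uninfected cells. Lack of protection may reflect toxicity.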

SMILES | EC50 [µM] | IC50 [µM] | outcome
COCC(N=CN1CCCc2ccccc2[C@@H]1CCCCl)C(C)(C)C (some centres not stated) | > 200 | 22.4 | –
CC(=O)NC1C(OCC(=O)N2CCCC2C(=O)NC(CCC(=O)NCCCCCNc2ccc([N+](=O)[O-])c3[nH]c4ccccc4c(=O)c23)C(N)=O)C(O)C(CO)OC1(C)OCc1ccccc1 (configuration not stated) | > 50.1 | 1.02 | –
CC(=O)c1c(O)n(-c2ccc(C)cc2)c(=O)c2c(N)n[nH]c12 | 100 | 117 | –
[O-]c1c2cc(-[n+]3c(-c4ccccc4)cc(-c4ccccc4)cc3-c3ccccc3)cc1COCCOCCOCCOCCOC2 | > 200 | 36.3 | –
COc1cc(C2C(O)N(C)C(=O)C23CCCN3C)c(Br)cc1Br (configuration not stated) | – | – | inactive
CC(=O)/C(=C\c1ccccc1)C(=O)Nc1ccccc1 | > 38 | > 38 | –
O=C1CCCc2sccc21 | > 200 | > 200 | –
OC1(c2ccccc2)CCCCCCCCC(O)(c2ccccc2)CCCCCCCC1 (configuration not stated) | > 200 | > 200 | –
O=C1NC(=O)C(CCC(=O)c2ccc3ccccc3c2)C(=O)N1 | > 110 | > 110 | –
COc1cccc(OC)c1NC(=O)C(=O)Nn1c(NNC(=O)c2ccncc2)nc2ccccc2c1=O | > 501 | > 501 | –
CCOc1c2c(cc3c1C(=O)c1c(OC)cccc1C3=O)C=C(OC)CC2 | > 25.1 | 13.5 | –
COc1cc(OC)c2c(c1)OC(=O)C(C(C)=O)C2 (configuration not stated) | > 200 | > 200 | –
COc1cc(C(O)C(O)c2cc(CN3CCOCC3)c(O)c(OC)c2)cc(CN2CCOCC2)c1O (configuration not stated) | > 200 | > 200 | –
CCn1c2ccc(C(=O)CCCN(C)C)cc2c2cc(C(=O)CCCN(C)C)ccc21 | > 380 | 0.123 | –
O=C(/C=C/c1ccsc1)c1ccc(Cl)s1 | > 200 | – | –
C/C=C/C=Nc1c(C#N)c2n(c1C(=O)Nc1ccc(Cl)cc1)CCC2 | > 50.1 | 23.4 | –
[CH3][Sn]([CH3])([S]CCS(=O)(=O)O)[S]CCS(=O)(=O)O | > 200 | 95.5 | –
CC(C)(C)C(=O)OCOP(=O)(O)OCC1CCC(N2C=CC(N)NC2=O)O1 (configuration not stated) | 0.0468 | 16.2 | –
OC1CC(O)O[C@H](c2ccccc2)C1 (some centres not stated) | – | – | inactive
COc1ccc(-c2c(C)oc(=O)c(NC(=O)c3ccccc3)c2C)cc1 | > 200 | 57.5 | –
COC(OC)[C@@H](C)[C@H](O)[C@](C)(O)C1OC(C)(C)OC(C(C)C=C(C)C)C1C (some centres not stated) | – | – | inactive

SMILES | EC50 [µM] | IC50 [µM] | outcome
CC/C(Cl)=N\OC(=O)Nc1ccc(OC)c(C)c1 | > 20 | 15.8 | –
CC(=O)c1ccc2c3c(ccc([N+](=O)[O-])c13)C(=O)OC2=O | > 200 | 30.9 | –
CCOC(=O)C/C=C\S[C@@H]1[C@H](NC(=O)COc2ccccc2)C(=O)N1C(C(=O)OCc1ccc([N+](=O)[O-])cc1)=C(C)C | > 4.37 | > 4.37 | –
C=C1CC[C@@](C)(c2ccc(CO)cc2)C1C (some centres not stated) | – | – | inactive
CCCCn1c(=O)cc(C(=O)O)c2ccccc21 | > 200 | > 200 | –
COc1ccc(CCc2ncc[nH]2)cc1OC | > 617 | > 617 | –
Cc1nc2c(nc1Cl)nc(Oc1ccc(Cl)cc1)c1ccccc12 | > 28.2 | > 28.2 | –
CC1C[C@@]23C4CCCN2CC2OC2[C@@]13C1CC4OC1=O (some centres not stated) | > 182 | > 182 | –
COC(=O)/C(=C\c1ccco1)P(=O)(OC)OC | > 200 | 191 | –
O=C1c2ccccc2C(=O)N1CCCSCC(CO)SCCCN1C(=O)c2ccccc2C1=O (configuration not stated) | > 200 | > 200 | –
CSC(=S)CC(O)[C@@H]1CC2c3ccccc3C1c1ccccc12 (some centres not stated) | > 200 | 3.47 | –
O=C1c2cc([N+](=O)[O-])cnc2S(=O)(=O)N1c1ccc(Br)cc1 | > 200 | 95.5 | –
Cc1cc2nnc(C(N)=O)c(N)c2cc1C | > 200 | > 200 | –
CC1(C)CC[C@H](C2=CC(=O)c3c(O)ccc(O)c3C2=O)O1 | > 91.2 | 0.0955 | –
CCCCOP(=O)(/N=C/OC(C)C)OCCCC | > 200 | > 200 | –
CCO/C(Cc1ccc(Cl)cc1)=N/NC(N)=S | > 200 | 95.5 | –
O=C(O)Cn1nnc2c(=O)[nH][nH]c(=O)c21 | > 200 | > 200 | –
Cc1[nH]c2ncnc(N)c2c1Cc1ccccc1 | > 200 | 2.63 | –
CC(CN1CCN(CC(C)Nc2ccnc3cc(Cl)ccc23)CC1)Nc1ccnc2cc(Cl)ccc12 (configuration not stated) | > 50.1 | > 50.1 | –
CC(=C/c1ccccc1)/C=C1/NC(=S)N(CN2CCCCCC2)C1=O | > 200 | 110 | –
